These results are taken from patent publication US20130123326A1, “ALLOSTERIC BINDING COMPOUNDS” (REGION MIDTJYLLAND, priority 2009, published 2013).

Test [1] addresses T1, hSERT (Homo sapiens, UniProt P31645). Kind of test: Dissociation assay with [3H]-citalopram and hSERT membrane preparations. It counts as binding. Here is the method:
Dulbecco's modified Eagle's medium, fetal bovine serum, trypsin, and penicillin/streptomycin were purchased from Invitrogen. Cell culture flasks were from NUNC. MicroScint-20 scintillation mixture was from Packard. [^3H]-Citalopram (85 Ci/mmol) was a gift from H. Lundbeck A/S (Valby, Denmark). Fugene-6 transfection reagent was from Roche Molecular Biochemicals. All chemicals are commercially available. Stock solutions of the allosteric ligands were prepared as 100 mM in EtOH.
The pcDNA3 plasmid vector containing the hSERT gene was used for transfection.
17.5 μl Fugene-6 (Roche Molecular Biochemicals) were mixed with 280 μl Dulbecco's modified Eagle's medium, and incubated at room temperature for 5 minutes. 10 μg of hSERT plasmid were added and the mixture was further incubated at least 15 minutes. […] The cells were plated at 35% confluency in a 150 mm dish, and grown at 37° C. for 64 h. Prior to harvesting the dish was rinsed in PBS. Cells were harvested with a cell scraper in buffer 1 (50 mM Tris-base, 150 mM NaCl, 20 mM EDTA, pH 7.4). After centrifugation (3000 g at 4° C. for 10 mins), cells were suspended and homogenized with an IKA Ultra-Turrax from Rose Scientific Ltd (Edmonton, Alberta, Canada) for 20 s in buffer 1. Membranes were pelleted by ultracentrifugation (12 000 g at 4° C. for 15 min) and homogenization was repeated in buffer 1. Finally, after ultracentrifugation (12000 g, 4° C., 15 min) membranes were resuspended in 1 ml buffer 3 (50 mM Tris-base, 120 mM NaCl, 5 mM KCl, pH 7.4) and stored at −80° C.
Dissociation Assay with [^3H]-Citalopram and Membrane Preparations.
SERT-[^3H]-citalopram complex was formed by incubating hSERT membrane preparation and radioligand in buffer 3 during a 60 min incubation at 4° C. Radioligand was present at a concentration 10 times the Kd value. The time kinetic of dissociation was followed by adding 10 μL complex solution to 250 μL buffer 3 in 96-well plates and incubating subsequently for increasing time intervals at RT. Reactions were terminated by filtration through GF/C glass-fibre filters (Unifilter, Perkin Elmer Life Sciences), preincubated with 40 μl 0.5% polyethyleneimine, using a Pachard Bell cell harvester, and subsequently washed three times with water. Filters were soaked in 40 μl Microscint 20 scintillation liquid (Pachard Bell). Bound radioactivity was determined by direct counting of plates using a Packard Bell microplate scintillation counter. Dissociation curves were obtained by plotting residual binding vs. time of dissociation.
The concentrations of allosteric compound in the dissociation buffer range from 400-0.2 μM.
The relative off-rate is expressed as the off-rate of the radioligand at a given concentration of allosteric compound, normalized to the off-rate of radioligand in the absence of allosteric compound.
The maximum stabilization factor is defined as the estimated upper plateau of the sigmoidal response curve, and describes how many folds the off-rate of bound radioligand from SERT can be attenuated in the presence of increasing concentrations of allosteric compound in the dissociation buffer.

Test [2] addresses T1, hSERT. Kind of test: 5-HT uptake inhibition assay: allo-ligand potentiating effect on uptake inhibition by S-citalopram. To be noted: [3H]5-HT uptake, hSERT-transfected HEK-293-MSR cells; allosteric ligand in the 600 nM range. The class given is cell-based. The protocol: Cell lines expressing the serotonin transporter constitute the most popular in vitro screening system for classical antidepressants, which will inhibit the transporter in uptake of serotonin. The inhibitory potency of the allosteric ligands is determined and expressed as an IC50 value in that a lowering of the IC50 values, when the concentration of the allosteric ligands increases, indicates an add-on inhibitory effect due to the presence of the allosteric ligand.
Transfection of HEK-293-MSR Cell Cultures
For transfections, 0.2 μg of pcDNA3 plasmid vector containing a hSERT cDNA insert and 0.4 μl of Fugene6 (Roche) were used per cm2 of plating area. Plasmid and Fugene6 were mixed with DMEM according to the manufacturer's recommendations. HEK-293-MSR cells were treated with trypsin, suspended in growth media and added to the Plasmid/Fugene6 mixture. Transfected cells were dispensed into white 96-well growth plates (Corning) or 150 mm cell culture discs at 60-80% confluence.
5-HT Uptake Inhibition Assays
Uptake assays were performed 40-50 hours after transfection. […] Cells were lysed in 50 μl MicroScint-20 (Packard), and the radiolabeled serotonin accumulated in the cells was quantified in a Packard TopCounter NXT microplate scintillation counter. Exact [^3H]5-HT reaction concentrations were determined in a Packard TRI-CARB® Liquid scintillation analyzer. […]

T1 sequence (P31645 whole entry): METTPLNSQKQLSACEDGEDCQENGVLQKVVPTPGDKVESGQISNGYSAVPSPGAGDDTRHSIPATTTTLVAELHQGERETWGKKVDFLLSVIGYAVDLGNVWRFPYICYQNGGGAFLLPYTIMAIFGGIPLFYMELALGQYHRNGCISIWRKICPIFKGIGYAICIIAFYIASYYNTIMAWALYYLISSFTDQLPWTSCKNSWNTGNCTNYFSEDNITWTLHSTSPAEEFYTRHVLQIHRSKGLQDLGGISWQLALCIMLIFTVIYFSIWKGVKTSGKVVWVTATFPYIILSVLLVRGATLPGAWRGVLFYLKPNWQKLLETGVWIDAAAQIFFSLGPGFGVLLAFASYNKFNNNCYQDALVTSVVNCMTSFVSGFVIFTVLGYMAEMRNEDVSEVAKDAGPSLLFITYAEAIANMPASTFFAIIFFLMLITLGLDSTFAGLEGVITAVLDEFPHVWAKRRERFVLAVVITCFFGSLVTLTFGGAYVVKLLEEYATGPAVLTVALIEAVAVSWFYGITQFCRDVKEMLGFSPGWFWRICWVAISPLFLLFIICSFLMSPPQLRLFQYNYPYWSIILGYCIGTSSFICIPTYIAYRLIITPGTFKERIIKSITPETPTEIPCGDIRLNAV

Take `N#CCSc1cccc2ccccc12` [Example 36, (Naphthalen-1-Ylsulfanyl)-Acetonitrile]: the 50% effective concentration (EC50) (as a rule, the concentration at which the effect is half-maximal) in test [1] (concentration of allosteric compound inducing 50% attenuation of the off-rate of the radioligand from SERT, 10 μM fluoxetine in dissociation buffer, read-out: EC50) was 700 nM. Further, in test [1] (estimated upper plateau of sigmoidal response curve: how many folds the off-rate of bound radioligand from SERT can be attenuated, N/A = No activity), the “Max. Stability (maximum stabilization factor)” value is 27. The “reduction of S-citalopram IC50 values (add-on effect)” value in test [2] is “up to 2 fold”.
